Measurements from article PMC1851987, “Identification of the Endogenous Key Substrates of the Human Organic Cation Transporter OCT2 and Their Implication in Function of Dopaminergic Neurons” (PLoS ONE, 2007).

Tests used:
[1] = biological target: T1, norepinephrine transporter (NET) (Homo sapiens, UniProt P23975); test: Specific uptake into norepinephrine transporter (NET) transfected HEK-293 cells; format: cell-based; settings: 10 µmol/l, 5 min incubation
T1 construct: expressed in transfected cells; host or cells: HEK-293, stably transfected; cDNA from C; Pifl (University of Vienna)
Excerpt: Pifl (University of Vienna).
1. Burnette WB, Bailey MD, Kukoyi S, Blakely RD, Trowbridge CG, et al. (1996) Human norepinephrine transporter kinetics using rotating disk electrode voltammetry. Anal Chem 68: 2932–2938. (0.90 MB TIF) Click here for additional data file.

[2] = test system: HEK-293 cells expressing empty vector; test: MTT reduction cell viability assay, empty vector transfected HEK-293 cells; format: cell-based, human
Method: (§1) Cell viability was assessed in HEK-293 cells, human dopaminergic neuroblastoma cells (SH-SY5Y) and human glioblastoma cells (HTZ-146) by the MTT test as described.[22] […] For indication of metabolic activity, cells were treated with MTT reagent (15 µl of 1 mg/ml stock solution per well) for 1 h, and after drying of culture plates for 1 h at 37°C, the resulting formazan dye was extracted with isopropanol/HCl (100 µl 0.04 mol/l per well) and absorbance was determined spectrophotometrically at 568 nm. Results were in agreement with the data obtained by the tryptan blue exclusion method (data not shown).

[3] = biological target: T2, organic cation transporter OCT2 (wild-type 400R) (Homo sapiens, UniProt O15244, S270A); test: Specific uptake into OCT2 (wild-type) transfected HEK-293 cells vs empty vector, LC-MS-MS; settings: for influx clearance Clin: specific uptake after incubation with 10 µmol/l, mean (s.e.m.), n = 3
T2 sequence (O15244 1-555 S270A): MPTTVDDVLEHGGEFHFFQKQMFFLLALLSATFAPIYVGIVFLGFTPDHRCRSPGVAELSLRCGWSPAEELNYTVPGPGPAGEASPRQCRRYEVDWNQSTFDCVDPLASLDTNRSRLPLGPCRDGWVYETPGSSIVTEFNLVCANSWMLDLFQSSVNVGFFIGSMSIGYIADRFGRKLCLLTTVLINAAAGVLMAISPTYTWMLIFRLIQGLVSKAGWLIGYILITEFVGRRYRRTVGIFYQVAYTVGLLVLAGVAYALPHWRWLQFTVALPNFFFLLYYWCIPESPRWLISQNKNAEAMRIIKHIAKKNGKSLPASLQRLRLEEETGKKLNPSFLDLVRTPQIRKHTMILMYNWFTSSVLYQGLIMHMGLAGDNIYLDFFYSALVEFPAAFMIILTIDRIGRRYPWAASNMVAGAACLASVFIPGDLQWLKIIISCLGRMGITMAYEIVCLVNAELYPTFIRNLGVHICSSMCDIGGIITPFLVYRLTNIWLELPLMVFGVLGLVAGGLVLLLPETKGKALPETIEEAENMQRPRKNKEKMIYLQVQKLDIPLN

HTZ-146 cells = test: MTT reduction cell viability assay, HTZ-146 cells; format: cell-based, human
Method: as §1

T1 sequence (P23975 whole entry): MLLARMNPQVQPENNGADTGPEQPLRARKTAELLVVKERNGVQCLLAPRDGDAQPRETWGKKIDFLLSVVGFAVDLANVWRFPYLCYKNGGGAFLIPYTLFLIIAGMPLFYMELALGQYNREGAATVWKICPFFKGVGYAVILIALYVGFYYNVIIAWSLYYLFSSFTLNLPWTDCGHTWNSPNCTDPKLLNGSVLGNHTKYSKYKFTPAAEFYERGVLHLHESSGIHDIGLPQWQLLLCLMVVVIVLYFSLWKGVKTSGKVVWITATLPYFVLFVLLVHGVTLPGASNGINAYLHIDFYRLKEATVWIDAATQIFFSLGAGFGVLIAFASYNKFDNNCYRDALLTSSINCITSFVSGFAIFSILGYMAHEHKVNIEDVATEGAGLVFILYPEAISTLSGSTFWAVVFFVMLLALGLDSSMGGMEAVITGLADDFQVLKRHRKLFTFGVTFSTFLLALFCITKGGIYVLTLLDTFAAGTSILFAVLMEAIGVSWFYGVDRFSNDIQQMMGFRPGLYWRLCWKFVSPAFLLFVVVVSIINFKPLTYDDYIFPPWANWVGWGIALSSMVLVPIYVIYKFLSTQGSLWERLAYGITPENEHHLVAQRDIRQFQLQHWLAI

Row | dependence of specific uptake on pH ([3]; 10 µmol/l, 3 min incubation) | Compound | substrate of NET (specific uptake) [1] | EC50 ([2]; Homo sapiens, HEK293, 48 h exposure, no pretreatment, read-out: EC50 (95% confidence interval), cell viability) | N-methylation of intracellular salsolinol (of salsolinol concentration) ([3]; after 60 min of incubation, transfected HEK-293 cells) | influx clearance Clin [3] | EC50 (HTZ-146 cells; Homo sapiens, 48 h, non-pretreated, read-out: EC50 (95% confidence interval), cell viability) | effect of pretreatment on salsolinol-induced degeneration ([2]; cyclo(his-pro) 10 µmol/l, 12 h prior to salsolinol treatment) | dependence of specific uptake on extracellular sodium concentration ([3]; 10 µmol/l, 3 min incubation, sodium chloride isoosmotically replaced with lithium chloride) | effect on glutamate-induced cytotoxicity (HTZ-146 cells; pre-treated 1 h with 10 µmol/l cyclo(his-pro))
1 |  | CC1NCCc2cc(O)c(O)cc21 (centres unmarked) [salsolinol] | no substrates of NET | 1.11 mM | ≤ 2.5% | 18.5 (2.6) µl/mg/min | 138 µM |  |  | 
2 | pH influenced specific uptake | O=C1NC(Cc2c[nH]cn2)C(=O)N2CCCC12 (centres unmarked) [cyclo(his-pro), histidyl-proline diketopiperazine] | no substrates of NET |  |  | 25.0 (4.2) µl/mg/min |  | had no effect | independent of extracellular sodium concentration | prevented
